From patent US20210137961A1, “Compositions and Methods for Treating Dry Eye Diseases” (priority 2017, published 2021)
Converted amounts (≈) assume the structure as drawn.

Columns and labels:
Type in all cases: cell-based
Ureaplasma urealyticum = assay: MIC against Ureaplasma urealyticum; settings: N 10
Chlamydophila pneumoniae = assay: MIC against Chlamydophila pneumoniae
Haemophilus influenzae = assay: MIC against Haemophilus influenzae
Mycobacterium avium = assay: MIC against Mycobacterium avium; settings: N 30
[1] = tested on: Immortalized human meibomian gland epithelial cells (HMGECs); assay: HMGEC lysosome and neutral lipid accumulation, differentiation and proliferation
Description: EXAMPLE. Immortalized human meibomian gland epithelial cells (HMGECs) are cultured in the presence of vehicle or test compound, such as Soli (2, 10, or 20 μg/ml) for 1 to 7 days under proliferating (keratinocyte serum-free medium; KSFM) or differentiating (DMEM/F12 plus 10% fetal bovine serum) conditions. A positive control (epidermal growth factor and bovine pituitary extract for proliferation; Azi for differentiation) and a negative control (media only) are included with the experiments. Additional details are described in JAMA Ophthalmol 132(2): 226-228 (Feb. 1, 2014) and Current Eye Research, 1-6 (2017), each of which is incorporated herein by reference.
HMGECs are evaluated for cell number, neutral lipid content (LipidTox) and lysosome accumulation (LysoTracker). […] Strong lysosomal effects are observed with the 10 μg/ml dose of Soli (relative stimulation=30), on the first day of dosing, and those effects are statistically different (p<0.01) from the control group (relative stimulation=13). In contrast, the 10 μg/m1Azi dose is not statistically different from the control group (relative stimulation=18) until day 3. […] Compounds described herein, such a Soli, affect lysosome and lipid accumulation and differentiation of HMGECs. The effect of Soli on lysosome appearance is faster than that of Azi.

CC[C@H]1OC(=O)[C@@](C)(F)C(=O)[C@H](C)[C@@H](O[C@@H]2O[C@H](C)C[C@H](N(C)C)[C@H]2O)[C@](C)(OC)C[C@@H](C)C(=O)[C@H](C)[C@H]2N(CCCCn3cc(-c4cccc(N)c4)nn3)C(=O)O[C@]12C [Solithromycin, solithromycin]
MIC50 (Ureaplasma urealyticum): 0.008 µg/mL (≈ 0.00947 µM)
MIC90 (Ureaplasma urealyticum): 0.031 µg/mL (≈ 0.0367 µM)
MIC Range (Ureaplasma urealyticum): 0.004 to 0.063 µg/mL
MIC90 (Chlamydophila pneumoniae; Chlamydophila pneumoniae (10 strains)): 0.25 µg/mL (≈ 0.296 µM)
MIC50 (Chlamydophila pneumoniae; Chlamydophila pneumoniae, N 10): 0.25 µg/mL (≈ 0.296 µM)
MIC90 (Chlamydophila pneumoniae; Chlamydophila pneumoniae, N 10): 0.25 µg/mL (≈ 0.296 µM)
MIC Range (Chlamydophila pneumoniae; Chlamydophila pneumoniae, N 10): 0.25 to 1 µg/mL
MIC90 (Haemophilus influenzae; Haemophilus influenzae (100 strains)): 2 µg/mL (≈ 2.37 µM)
MIC50 (Haemophilus influenzae; Haemophilus influenzae, N 100): 1 µg/mL (≈ 1.18 µM)
MIC90 (Haemophilus influenzae; Haemophilus influenzae, N 100): 2 µg/mL (≈ 2.37 µM)
MIC Range (Haemophilus influenzae; Haemophilus influenzae, N 100): 0.12 to 4 µg/mL
MIC50 (Mycobacterium avium): 1 µg/mL (≈ 1.18 µM)
MIC90 (Mycobacterium avium): 1 µg/mL (≈ 1.18 µM)
MIC Range (Mycobacterium avium): 1 µg/mL (≈ 1.18 µM)
lysosomal effects, relative stimulation ([1]; 10 μg/ml dose, first day of dosing, LysoTracker): 30
accumulation of neutral lipids and lysosomes in HMGECs ([1]; 2, 10 or 20 μg/ml, 1 to 7 days): rapid and dose-dependent increase
proliferation of HMGECs ([1]; 7-day dosing period): does not cause unwanted proliferation
